This is an account of results in patent US6407227B1, “Process for the crystallization of lactitol” (Xyrofin Oy, priority 1997, dated 2002).

The nature of data set [1]: Solubility Test 1: equilibrium solubility of lactitol crystals in water. It is filed as physicochemical. The protocol: The determination of the solubility and stability of lactitol crystals in water was made as follows:
The lactitol, which was used in the tests, was high grade lactitol monohydrate Lactitol MC (batch 21769) manufactured by Xyrofin OY, Finland according to EP Patent 0456636. This monohydrate was also used as seed crystals. When lactitol dihydrate was studied at 45° C. and 55 ° C., lactitol dihydrate produced at the applicant's research laboratory Dec. 20, 1994 (crystallization No. 3) was used both for solution and as seed crystals. […] The water, which was used, was distilled water.
At 35° C. the supersaturation was 10 g/100 g. […] The solutions were made by dissolving the monohydrate into water at a temperature above the solubility temperature. The solutions which were used at 65° C. and 75° C. were made by evaporating with a vacuum rotating flask evaporator. The concentrations were determined by refractometric indexes (RI). At the temperatures of 5° C., 10° C. and 15° C. the solutions were made in a 2-liter jacketed vessel. The other solutions were made in 200 ml or 250 ml measurement bottles.
When the lactitol had dissolved, the solution was cooled to the test temperature. The solution was seeded with softly crushed monohydrate crystals (2 tests with dihydrate crystals). In the measurement bottles the solutions were stirred with a magnetic stirrer and in the jacketed vessel with a motor driven mixer.
The crystallization of lactitol and the equilibration of the solution was monitored by measuring the refractometric index (RI) of the mother liquid. Before taking a sample, the crystals were allowed settle on the bottom of the vessel, so that the measurement of the RI would be as exact as possible. […] Thus, the RI of the mother liquid was measured from a suspension of crystals and solution. At the end point of the measurement the waiting time was so long that the mother liquid was clearly separated and after that the RI of the mother liquid was measured. The RIs were measured below 55° C. with an Index Instruments GPR-11-37 refractometer and above 55° C. with a Zeiβ refractometer, both of which were calibrated.
The equilibration of the solution was generally monitored for 7 . . . 14 days, but only for 3 days, when dihydrate was used as seed crystals. […] 150° C. and reading accuracy of 0.2° C. The accuracy of this thermometer was checked against a calibrated thermometer.
After the crystal suspension had reached equilibrium, the crystals were separated by centrifuging 15 min 5000 rpm using a thick cloth. One part of the crystals was dried at 60° C. in a drying cabinet over a night. The water contents of both undried and dried crystals were analyzed by the Karl Fischer method or by a coulometric Karl Fischer method. Furthermore, melting behaviors were analyzed.
The final solubilities at the studied temperatures are shown in Tables 2 and 3 in addition to the crystal forms. The crystal form was concluded from the water contents of the undried crystals and from the melting ranges. The water contents are shown in Tables 4 and 5 and melting behaviors in Table 6.

Data set [2] in a line: Linear curve fittings of the solubility points and stability areas from intersections of solubility curves. The data set is classed as physicochemical. To be noted: for solubility line s as function of temperature t (linear fitting): t in ° C., s = weight of lactitol/(weight of lactitol+weight of water)×100%, between 100 and 0 ° C. From the text: The solubility data of Table 2 was combined with some earlier solubility measurement data. The curve fittings of the solubility points were made as linear fittings, when % by weight is used as a concentration unit. […] The fittings were made with the aid of the spread sheet program Excel 5.0^R. The solubility equations of the different hydrate forms are shown in Equations (I) to (IV): [formula]
The fitting of the trihydrate cannot be considered absolutely exact because only three measurement points were used for fitting: one exact point, one uncertain point and one calculatory point.
The solubility points and the curve fittings are shown in a graph in FIG. 1. […] From the intersections of solubility curves it is possible to conclude the stability areas of the different lactitol forms.

Molecules are shown by their SMILES.

With `OC[C@@H](O)[C@@H](O[C@@H]1O[C@H](CO)[C@H](O)[C@H](O)[C@H]1O)[C@H](O)[C@@H](O)CO` [dihydrate, lactitol dihydrate], the Solubility in data set [1] (10.2 ° C., lactitol monohydrate used as seed crystals) amounted to 45.7 g/100 g; in data set [1] (15.0 ° C., lactitol monohydrate used as seed crystals), 48.8 g/100 g; in data set [1] (25.6 ° C., lactitol monohydrate used as seed crystals), 56.3 g/100 g; in data set [1] (35.0 ° C., lactitol monohydrate used as seed crystals), 61.7 g/100 g; in data set [1] (45.0 ° C., lactitol dihydrate used as seed crystals), 69.1 g/100 g. Besides, the “solubility line s as function of temperature t (linear fitting)” value (“solubility line s as function” for short) in data set [2] (dihydrate) was 39.7+0.6332t.

Regarding `OC[C@@H](O)[C@@H](O[C@@H]1O[C@H](CO)[C@H](O)[C@H](O)[C@H]1O)[C@H](O)[C@@H](O)CO` [monohydrate, lactitol monohydrate], the Solubility in data set [1] (54.7 ° C., lactitol dihydrate used as seed crystals) is listed as 73.4 g/100 g; in data set [1] (55.0 ° C., lactitol monohydrate used as seed crystals), 75.2 g/100 g; in data set [1] (65.0 ° C., lactitol monohydrate used as seed crystals), 79.6 g/100 g. For the same compound, in data set [2] (monohydrate), the “solubility line s as function” value is on record as 50.2+0.4346t.

`OC[C@@H](O)[C@@H](O[C@@H]1O[C@H](CO)[C@H](O)[C@H](O)[C@H]1O)[C@H](O)[C@@H](O)CO` [trihydrate, lactitol trihydrate] came in with a Solubility in data set [1] (5.1 ° C., lactitol monohydrate used as seed crystals) of 42.3 g/100 g. In addition, the “stability area (temperature)” value in data set [2] (in water, from the intersections of solubility curves, trihydrate) is < 12 °C. For the same compound, the “solubility line s as function” value in data set [2] (trihydrate) is on record as 33.4+1.1482t.
